From patent US10759766B2, “Certain chemical entities, compositions, and methods” (NeuPharma, Inc., priority 2011, dated 2020)

Legend:
BRAF V600E = BRAF V600E (Homo sapiens (Human), UniProt P15056, V600E); assay: Z′-LYTE kinase inhibition assay (Invitrogen), BRAF V600E; assay type: biochemical; conditions: Z′-LYTE method; for inhibition at 1 µM: 1 μM compound, read-out: % inhibition at 1 μM against BRAF V600E; for IC50: read-out: IC50 against BRAF V600E
Procedure: (§1) Inhibitory activities Inhibitory activities of compounds against BRAF, and BRAF V600E were measured by Invitrogen using Z′-LYTE® Method as briefly described in the following. 4× Test compounds are dissolved in 1% DMSO. […] ATP solutions are diluted to a 4×ATP working concentration in Kinase Buffer (50 mM HEPES pH 7.5, 0.01% BRIJ-35, 10 mM MgCl2, 1 mM EGTA). Reaction started by 30-second shaking of mixture consisting of 2.5 μL 4× test compound, […] and 2.5 μL 4×ATP Solution on Bar-coded Corning, low volume NBS, black 384-well plate (Corning Cat. #3676). Then the mixture was incubated for 60-minute at room temperature for the kinase reaction, followed by addition of 5 μL of a 1:1024 dilution of development reagent A and 30-second plate shake. The mixture was then incubated for another 60-minute at room temperature for development reaction. Fluorescence was read by plate reader. IC50 was calculated by plotting the concentration of compound vs the percentage of inhibition in treated wells using GraphPad Prism 5.
The scale utilized in Table 3 is as follows: +++ less than 100 nM; and ++ greater than 100 nM.

KDR (VEGFR2) = KDR (VEGFR2) (Homo sapiens (Human), UniProt P35968); assay: Z′-LYTE kinase inhibition assay (Invitrogen), KDR; assay type: biochemical; conditions: Z′-LYTE method; for inhibition at 1 µM: 1 μM compound, read-out: % inhibition at 1 μM against KDR; for IC50: read-out: IC50 against KDR
Sequence of KDR (VEGFR2) (P35968 20-1356): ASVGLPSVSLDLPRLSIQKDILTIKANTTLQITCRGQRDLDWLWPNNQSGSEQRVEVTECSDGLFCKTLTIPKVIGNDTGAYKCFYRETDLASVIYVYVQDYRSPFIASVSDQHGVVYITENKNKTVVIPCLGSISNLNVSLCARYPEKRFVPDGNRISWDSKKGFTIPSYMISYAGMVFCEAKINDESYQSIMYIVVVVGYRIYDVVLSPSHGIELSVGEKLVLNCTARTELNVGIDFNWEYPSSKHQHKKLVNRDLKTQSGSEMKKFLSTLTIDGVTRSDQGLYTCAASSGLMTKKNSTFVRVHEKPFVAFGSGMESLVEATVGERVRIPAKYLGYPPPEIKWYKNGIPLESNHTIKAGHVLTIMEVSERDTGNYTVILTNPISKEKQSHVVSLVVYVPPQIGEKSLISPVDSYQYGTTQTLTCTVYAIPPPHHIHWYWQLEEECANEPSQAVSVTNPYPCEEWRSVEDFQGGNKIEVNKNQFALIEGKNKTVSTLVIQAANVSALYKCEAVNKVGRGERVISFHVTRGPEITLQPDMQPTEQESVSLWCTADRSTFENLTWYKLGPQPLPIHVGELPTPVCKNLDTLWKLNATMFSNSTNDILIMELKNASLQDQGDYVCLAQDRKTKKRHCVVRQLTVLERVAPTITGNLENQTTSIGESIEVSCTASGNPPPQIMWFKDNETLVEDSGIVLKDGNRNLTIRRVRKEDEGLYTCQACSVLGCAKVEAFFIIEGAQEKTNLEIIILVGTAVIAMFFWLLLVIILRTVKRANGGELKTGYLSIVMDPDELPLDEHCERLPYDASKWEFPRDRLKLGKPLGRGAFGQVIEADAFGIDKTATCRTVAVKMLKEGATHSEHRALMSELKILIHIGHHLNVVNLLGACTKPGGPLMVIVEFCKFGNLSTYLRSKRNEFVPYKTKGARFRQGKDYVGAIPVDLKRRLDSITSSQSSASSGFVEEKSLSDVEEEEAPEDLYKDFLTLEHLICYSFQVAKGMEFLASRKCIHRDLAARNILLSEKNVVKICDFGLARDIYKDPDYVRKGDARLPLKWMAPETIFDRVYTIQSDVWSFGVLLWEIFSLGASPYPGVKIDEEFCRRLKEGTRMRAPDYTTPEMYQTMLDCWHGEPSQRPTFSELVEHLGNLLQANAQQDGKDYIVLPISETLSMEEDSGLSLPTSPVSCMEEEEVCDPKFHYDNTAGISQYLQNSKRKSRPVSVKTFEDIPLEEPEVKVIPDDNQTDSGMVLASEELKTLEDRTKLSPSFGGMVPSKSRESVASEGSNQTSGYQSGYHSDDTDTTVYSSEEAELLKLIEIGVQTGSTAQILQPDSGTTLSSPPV
Procedure: as §1
Inhibitory activities of compounds against KDR (VEGFR2) were also measured by Invitrogen using Z′-LYTE® Method as described above with the following modification. The 2× KDR (VEGFR2)/Tyr 01 mixture is prepared in 50 mM HEPES pH 7.5, 0.01% BRIJ-35, 10 mM MgCl2, 1 mM EGTA. The final 10 μL Kinase Reaction consists of 0.5-11.7 ng KDR (VEGFR2) and 2 μM Tyr 01 in 50 mM HEPES pH 7.5, 0.01% BRIJ-35, 10 mM MgCl2, 1 mM EGTA. After the 1 hour Kinase Reaction incubation, 5 μL of a 1:256 dilution of Development Reagent B is added.
The scale utilized in Table 5 is as follows: +++ less than 100 nM; and ++ greater than 100 nM

A549 cells = assay: Inhibition of cancer cell growth, MTT assay, A549; assay type: cell-based; conditions: Homo sapiens, A549, 72 h exposure
Procedure: (§2) Inhibition of cell growth by compounds was measured using MTT assay (Mosmann, T., Journal of Immunological Methods, 1983, 65, 55-63). Tumor cell lines were purchased from ATCC (American Type Culture Collection, Manassas, Va.). All cell lines were maintained in RPMI 1640 (Hyclone) supplemented with 10% fetal bovine serum (FBS, Hyclone), glutamine (2 mM, Hyclone), and antibiotics (penicillin 100 U/mL and streptomycin 50 μg/mL) at 37° C. in a humidified atmosphere of 5% CO2 in air. Taxol (as a positive control, Sigma) and compounds were dissolved in DMSO (Sigma), and the final concentration of DMSO in the medium was 1%. Tumor cells were plated in 96-well plates at densities of about 4000 cells/well of a 96-well plate and allowed to adhere/grow for 24 h. They were then treated with various concentrations of drug for 72 h. 3-(4,5-Dimethylthiazol-2-yl)-2,5-diphenyltetrazolium bromide (MTT, Sigma) was used to determine the number of viable cells at the time of compound addition and the number of cells remaining after 72 h compound exposure. The number of cells remaining after 72 h was compared to the number of viable cells at the time of compound addition by measuring the absorbance at 570 nm, allowing for the calculation of growth inhibition.
(§3) All concentrations of compounds were tested in triplicate and controls were averaged over 4 wells. IC50 was calculated by plotting the concentration of compound vs the percentage of inhibition in treated wells using GraphPad Prism 5. […] The scale utilized in Table 6 is as follows: +++ less than 1000 nM; ++ between 1000 nM and 5000 nM; and + greater than 5000 nM. The scale utilized in Table 7 is as follows: +++ less than 2000 nM; ++ between 2000 nM and 5000 nM; and + greater than 5000 nM.

A375 cells = assay: Inhibition of cancer cell growth, MTT assay, A375; assay type: cell-based; conditions: Homo sapiens, A-375, 72 h exposure
Procedure: as §2, §3

Sequence of BRAF V600E (P15056 whole entry V600E): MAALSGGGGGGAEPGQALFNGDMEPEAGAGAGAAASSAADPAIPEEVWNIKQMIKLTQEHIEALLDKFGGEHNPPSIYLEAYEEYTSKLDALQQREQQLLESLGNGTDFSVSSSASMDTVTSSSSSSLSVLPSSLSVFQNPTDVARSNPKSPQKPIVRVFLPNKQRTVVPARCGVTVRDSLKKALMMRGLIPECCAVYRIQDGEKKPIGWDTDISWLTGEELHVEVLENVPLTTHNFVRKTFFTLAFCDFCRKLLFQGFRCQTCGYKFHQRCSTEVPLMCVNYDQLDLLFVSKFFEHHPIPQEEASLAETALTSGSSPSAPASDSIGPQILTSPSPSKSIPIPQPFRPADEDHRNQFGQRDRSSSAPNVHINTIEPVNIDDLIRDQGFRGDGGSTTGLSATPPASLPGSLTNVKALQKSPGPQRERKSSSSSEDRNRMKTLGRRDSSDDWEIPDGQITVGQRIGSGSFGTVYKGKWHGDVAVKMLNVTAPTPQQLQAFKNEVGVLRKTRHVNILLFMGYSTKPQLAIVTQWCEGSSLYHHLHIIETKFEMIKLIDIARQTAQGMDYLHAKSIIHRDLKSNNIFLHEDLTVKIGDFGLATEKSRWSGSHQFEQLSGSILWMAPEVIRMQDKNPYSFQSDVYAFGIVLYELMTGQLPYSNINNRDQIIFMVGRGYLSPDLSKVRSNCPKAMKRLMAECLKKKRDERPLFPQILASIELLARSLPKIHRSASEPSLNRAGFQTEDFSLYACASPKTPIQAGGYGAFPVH

inhibition at 1 µM (BRAF V600E)	inhibition at 1 µM (KDR (VEGFR2))	IC50 (A549 cells)	IC50 (BRAF V600E)	IC50 (KDR (VEGFR2))	IC50 (A375 cells)	SMILES
> 89%	< 70%	> 5 µM	–	–	–	O=C(Nc1ccc(F)c(F)c1)Nc1cc(F)c(F)c(C(=O)c2ccc3ncc(N4CCOCC4)nc3c2)c1 [Compound C096]
> 89%	70 to 89%	> 5 µM	< 0.1 µM	> 0.1 µM	> 5 µM	O=C(Nc1cccc(F)c1)Nc1cccc(C(=O)c2ccc3ncc(N4CCOCC4)nc3c2)c1 [Compound C016, 1-(3-fluorophenyl)-3-(3-(3-morpholinoquinoxaline-6-carbonyl)phenyl)urea]
> 89%	> 89%	> 5 µM	< 0.1 µM	< 0.1 µM	> 5 µM	O=C(Nc1cccc(F)c1)Nc1cccc(C(=O)c2ccc3ncc(N4CCCC4)nc3c2)c1 [Compound C019, 1-(3-fluorophenyl)-3-(3-(3-(pyrrolidin-1-yl)quinoxaline-6-carbonyl)phenyl)urea]
> 89%	< 70%	2 to 5 µM	–	–	> 5 µM	O=C(Nc1cc(F)cc(Cl)c1)Nc1cc(F)cc(C(=O)c2ccc3nccnc3c2)c1 [Compound C062, 1-(3-chloro-5-fluorophenyl)-3-(3-fluoro-5-(quinoxaline-6-carbonyl)phenyl)urea]
> 89%	< 70%	2 to 5 µM	–	–	< 1 µM	O=C(Nc1ccc(Cl)cc1)Nc1cc(F)cc(C(=O)c2ccc3ncc(N4CCOCC4)nc3c2)c1 [Compound C045, 1-(4-chlorophenyl)-3-(3-fluoro-5-(3-morpholinoquinoxaline-6-carbonyl)phenyl)urea]
> 89%	< 70%	2 to 5 µM	–	–	1 to 5 µM	O=C(Nc1cc(F)cc(C(=O)c2ccc3ncc(N4CCOCC4)nc3c2)c1)Nc1ccc(Cl)c(F)c1 [Compound C051, 1-(4-chloro-3-fluorophenyl)-3-(3-fluoro-5-(3-morpholinoquinoxaline-6-carbonyl)phenyl)urea]
< 70%	< 70%	> 5 µM	–	–	> 5 µM	O=C(Nc1cc(F)c(F)c(C(=O)c2ccc3ncc(N4CCOCC4)nc3c2)c1F)c1ccc(Cl)c(C(F)(F)F)c1 [Compound C139]
> 89%	> 89%	2 to 5 µM	–	< 0.1 µM	< 1 µM	O=C(Nc1ccc(F)c(C(=O)c2ccc3ncc(N4CCNCC4)nc3c2)c1)Nc1ccc(Cl)c(C(F)(F)F)c1 [Compound C086]
> 89%	< 70%	> 5 µM	–	–	1 to 5 µM	O=C(Nc1ccc(Cl)cc1)Nc1ccc(F)c(C(=O)c2ccc3nccnc3c2)c1 [Compound C074, 1-(4-chlorophenyl)-3-(4-fluoro-3-(quinoxaline-6-carbonyl)phenyl)urea]
70 to 89%	< 70%	> 5 µM	–	–	1 to 5 µM	O=C(Nc1cc(F)cc(C(=O)c2ccc3ncc(N4CCOCC4)nc3c2)c1)c1ccc(Cl)c(C(F)(F)F)c1 [Compound C135, 4-chloro-N-(3-fluoro-5-(3-morpholinoquinoxaline-6-carbonyl)phenyl)-3-(trifluoromethyl)benzamide]
> 89%	70 to 89%	> 5 µM	–	–	1 to 5 µM	COc1cnc2ccc(C(=O)c3cc(NC(=O)Nc4cccc(F)c4)ccc3F)cc2n1 [Compound C083, 1-(4-fluoro-3-(3-methoxyquinoxaline-6-carbonyl)phenyl)-3-(3-fluorophenyl)urea]
–	–	2 to 5 µM	–	–	–	O=C(Nc1ccc(F)c(F)c1)Nc1cc(F)c(F)c(C(=O)c2ccc3ncc(N4CCNCC4)nc3c2)c1 [Compound C103, 1-(3,4-difluoro-5-(3-(piperazin-1-yl)quinoxaline-6-carbonyl)phenyl)-3-(3,4-difluorophenyl)urea]
> 89%	70 to 89%	< 2 µM	–	> 0.1 µM	–	O=C(Nc1ccc(F)cc1)Nc1cc(F)c(F)c(C(=O)c2ccc3ncc(N4CCNCC4)nc3c2)c1 [Compound C099, 1-(3,4-difluoro-5-(3-(piperazin-1-yl)quinoxaline-6-carbonyl)phenyl)-3-(4-fluorophenyl)urea]
> 89%	70 to 89%	> 5 µM	–	–	–	O=C(Nc1ccc(F)cc1)Nc1cc(F)c(F)c(C(=O)c2ccc3ncc(N4CCOCC4)nc3c2)c1 [Compound C095, 1-(3,4-difluoro-5-(3-morpholinoquinoxaline-6-carbonyl)phenyl)-3-(4-fluorophenyl)urea]
70 to 89%	70 to 89%	> 5 µM	–	–	–	O=C(Nc1ccc(F)c(C(=O)c2ccc3nccnc3c2)c1F)c1cccc(C(F)(F)F)c1 [Compound C114, N-(2,4-difluoro-3-(quinoxaline-6-carbonyl)phenyl)-3-(trifluoromethyl)benzamide]
–	–	> 5 µM	–	–	–	O=C(Nc1cc(F)cc(F)c1)Nc1cc(F)c(F)c(C(=O)c2ccc3ncc(N4CCNCC4)nc3c2)c1 [Compound C104, 1-(3,4-difluoro-5-(3-(piperazin-1-yl)quinoxaline-6-carbonyl)phenyl)-3-(3,5-difluorophenyl)urea]
> 89%	70 to 89%	2 to 5 µM	–	–	–	O=C(Nc1cccc(F)c1)Nc1cc(F)c(F)c(C(=O)c2ccc3ncc(N4CCNCC4)nc3c2)c1 [Compound C098]
> 89%	< 70%	2 to 5 µM	–	–	–	O=C(Nc1cc(F)cc(F)c1)Nc1cc(F)cc(C(=O)c2ccc3ncc(N4CCOCC4)nc3c2)c1 [Compound C093]
> 89%	70 to 89%	2 to 5 µM	–	–	–	O=C(Nc1cc(F)cc(F)c1)Nc1ccc(F)c(C(=O)c2ccc3ncc(N4CCNCC4)nc3c2)c1 [Compound C101, 1-(3,5-difluorophenyl)-3-(4-fluoro-3-(3-(piperazin-1-yl)quinoxaline-6-carbonyl)phenyl)urea]
> 89%	> 89%	2 to 5 µM	–	< 0.1 µM	–	O=C(Nc1ccc(F)c(F)c1)Nc1ccc(F)c(C(=O)c2ccc3ncc(N4CCNCC4)nc3c2)c1 [Compound C102, 1-(3,4-difluorophenyl)-3-(4-fluoro-3-(3-(piperazin-1-yl)quinoxaline-6-carbonyl)phenyl)urea]
> 89%	< 70%	> 5 µM	–	–	–	O=C(Nc1cc(F)cc(F)c1)Nc1ccc(F)c(C(=O)c2ccc3ncc(N4CCOCC4)nc3c2)c1 [Compound C094, 1-(3,5-difluorophenyl)-3-(4-fluoro-3-(3-morphlinoquinoxaline-6-carbonyl)phenyl)urea]
> 89%	< 70%	2 to 5 µM	–	–	–	O=C(Nc1cc(F)cc(F)c1)Nc1cc(F)c(F)c(C(=O)c2ccc3ncc(N4CCOCC4)nc3c2)c1 [Compound C097]
